Patent US20070281992A1, “COMBINATION OF GYRASE B INHIBITORS AND PROTEIN SYNTHESIS INHIBITORS AND USES THEREOF” (priority 2006, published 2007)
Where two headings read alike, the source gives them in different places.

Experiments:
[1] = test system: Methicillin-Resistant Staphylococcus aureus Isolates; experiment: MIC assay (NCCLS broth dilution), MRSA clinical isolates; type: cell-based; details: for MIC: read-out: Minimal Inhibitory Concentration
Outline: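 Broth microdilution MICs determined per NCCLS M7-A6 in Mueller Hinton II broth over 11 two-fold dilutions. Novobiocin/tetracycline and novobiocin/minocycline combinations tested at a 2.5:1 ratio. Vancomycin served as control agent; S. aureus ATCC 29213 and E. faecalis ATCC 29212 were QC strains.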

[2] = test system: Staphylococcus aureus 0100 (ATCC 29213); experiment: MIC assay, quality control strain S. aureus ATCC 29213; type: cell-based; details: ATCC29213, S. aureus ATCC 29213, repeat runs 22FEB06-09MAR06, combinations at 2.5:1, read-out: Minimal Inhibitory Concentration, quality control
Procedure: Antibiotics: novobiocin, tetracycline, minocycline, oxacillin, and vancomycin were all purchased from Sigma-Aldrich. Linezolid was obtained from Pfizer, Inc. Novobiocin/tetracycline and novobiocin/minocycline were tested in a 2.5:1 ratio to mimic the serum levels. (Vavra, J. J., 1967, Development of resistance to novobiocin, tetracycline, and novobiocin-tetracycline combinations in Staphylococcus aureus populations, J. Bacteriol 93(3):801). Compounds were tested across a concentration range consisting of 11 two-fold serial dilutions of test agent.
Stock solutions were prepared in sterile deionized water; novobiocin stock concentration was 1600 μg/mL and all other drugs stock solutions were prepared at 640 μg/mL. The stock solutions were allowed to sit at room temperature for one hour to auto-sterilize prior to use in the test. All compounds were in solution in water. The control agent was vancomycin hydrochloride, Sigma Chemical Lot # 015K0825.
The test organisms for the assay were 52 MSSA, 52 MRSA, 8 VISA, 7 VISE, and 3 LRSA isolates. Quality control strains included Staphylococcus aureus 0100 (ATCC 29213) and Enterococcus faecalis (ATCC 29212).
The MIC assay was performed according to published NCCLS guidelines. (National Committee for Clinical Laboratory Standards, Methods for Dilution Antimicrobial Susceptibility Tests for Bacteria that Grow Aerobically; Approved Standard-Sixth Edition, NCCLS Document M7-A6 [ISBN 1-56238-486-4], NCCLS, 940 West Valley Road, Suite 1400, Wayne, Pa. 19087-1898 USA, 2003). The test medium was Mueller Hinton II Broth for all organisms.

[3] = test system: Staphylococcus aureus 0100 (ATCC 29213); details: S. aureus ATCC 29213; accepted quality control range; cited from earlier work
[4] = test system: Enterococcus faecalis (ATCC 29212); details: E. faecalis ATCC 29212; accepted quality control range; cited from earlier work
[5] = Staphylococcus aureus, 52 MRSA isolates, combinations at 2.5:1, given as NB/partner

- MIC Range ([1]; 52 MRSA isolates, combinations at 2.5:1, given as NB/partner): 2 to 4 mg/L
- MIC ([1]; Staphylococcus aureus, MRSA isolate 757, 24FEB06): 4 mg/L
- MIC ([1]; Staphylococcus aureus, MRSA isolate 758, 03MAR06): 4 mg/L
- MIC ([1]; Staphylococcus aureus, MRSA isolate 758, 24FEB06): 4 mg/L
- MIC ([1]; Staphylococcus aureus, MRSA isolate 760, 03MAR06): 2 mg/L
- MIC ([1]; Staphylococcus aureus, MRSA isolate 760, 24FEB06): 4 mg/L
- MIC ([1]; Staphylococcus aureus, MRSA isolate 763, 22FEB06): 4 mg/L
- MIC ([1]; Staphylococcus aureus, MRSA isolate 765, 22FEB06): 4 mg/L
- MIC ([1]; Staphylococcus aureus, MRSA isolate 766, 22FEB06): 4 mg/L
- MIC ([1]; Staphylococcus aureus, MRSA isolate 767, 22FEB06): 2 mg/L
- MIC ([1]; Staphylococcus aureus, MRSA isolate 768, 22FEB06): 2 mg/L
- MIC ([1]; Staphylococcus aureus, MRSA isolate 769, 22FEB06): 2 mg/L
- MIC ([1]; Staphylococcus aureus, MRSA isolate 770, 22FEB06): 2 mg/L
- MIC ([1]; Staphylococcus aureus, MRSA isolate 771, 22FEB06): 2 mg/L
- MIC ([1]; Staphylococcus aureus, MRSA isolate 772, 22FEB06): 2 mg/L
- MIC ([1]; Staphylococcus aureus, MRSA isolate 773, 24FEB06): 2 mg/L
- MIC ([1]; Staphylococcus aureus, MRSA isolate 774, 24FEB06): 2 mg/L
- MIC ([1]; Staphylococcus aureus, MRSA isolate 775, 24FEB06): 4 mg/L
- MIC ([1]; Staphylococcus aureus, MRSA isolate 776, 24FEB06): 2 mg/L
- MIC ([1]; Staphylococcus aureus, MRSA isolate 777, 24FEB06): 2 mg/L
- MIC ([1]; Staphylococcus aureus, MRSA isolate 778, 24FEB06): 2 mg/L
- MIC ([1]; Staphylococcus aureus, MRSA isolate 886, 24FEB06): 2 mg/L
- MIC ([1]; Staphylococcus aureus, MRSA isolate 887, 24FEB06): 4 mg/L
- MIC ([1]; Staphylococcus aureus, MRSA isolate 888, 24FEB06): 4 mg/L
- MIC ([1]; Staphylococcus aureus, MRSA isolate 889, 24FEB06): 4 mg/L
- MIC ([1]; Staphylococcus aureus, MRSA isolate 1004, 24FEB06): 4 mg/L
- MIC ([1]; Staphylococcus aureus, MRSA isolate 1010, 22FEB06): 2 mg/L
- MIC ([1]; Staphylococcus aureus, MRSA isolate 1012, 22FEB06): 2 mg/L
- MIC ([1]; Staphylococcus aureus, MRSA isolate 1013, 22FEB06): 2 mg/L
- MIC ([1]; Staphylococcus aureus, MRSA isolate 1014, 22FEB06): 2 mg/L
- MIC ([1]; Staphylococcus aureus, MRSA isolate 1015, 22FEB06): 2 mg/L
- MIC ([1]; Staphylococcus aureus, MRSA isolate 1016, 22FEB06): 2 mg/L
- MIC ([1]; Staphylococcus aureus, MRSA isolate 1017, 22FEB06): 2 mg/L
- MIC ([1]; Staphylococcus aureus, MRSA isolate 1021, 22FEB06): 2 mg/L
- MIC ([1]; Staphylococcus aureus, MRSA isolate 1022, 22FEB06): 2 mg/L
- MIC ([1]; Staphylococcus aureus, MRSA isolate 1023, 22FEB06): 2 mg/L
- MIC ([1]; Staphylococcus aureus, MRSA isolate 1024, 22FEB06): 2 mg/L
- MIC ([1]; Staphylococcus aureus, MRSA isolate 1025, 22FEB06): 2 mg/L
- MIC ([1]; Staphylococcus aureus, MRSA isolate 1135, 22FEB06): 2 mg/L
- MIC ([1]; Staphylococcus aureus, MRSA isolate 1136, 22FEB06): 4 mg/L
- MIC ([1]; Staphylococcus aureus, MRSA isolate 1137, 22FEB06): 2 mg/L
- MIC ([1]; Staphylococcus aureus, MRSA isolate 1138, 22FEB06): 4 mg/L
- MIC ([1]; Staphylococcus aureus, MRSA isolate 1222, 03MAR06): 2 mg/L
- MIC ([1]; Staphylococcus aureus, MRSA isolate 1222, 24FEB06): 2 mg/L
- MIC ([1]; Staphylococcus aureus, MRSA isolate 1653, 03MAR06): 2 mg/L
- MIC ([1]; Staphylococcus aureus, MRSA isolate 1658, 03MAR06): 2 mg/L
- MIC ([1]; Staphylococcus aureus, MRSA isolate 1659, 03MAR06): 2 mg/L
- MIC ([1]; Staphylococcus aureus, MRSA isolate 1661, 03MAR06): 4 mg/L
- MIC ([1]; Staphylococcus aureus, MRSA isolate 1729, 03MAR06): 2 mg/L
- MIC ([1]; Staphylococcus aureus, MRSA isolate 1730, 24FEB06): 4 mg/L
- MIC ([1]; Staphylococcus aureus, MRSA isolate 2009, 24FEB06): 2 mg/L
- MIC ([1]; Staphylococcus aureus, MRSA isolate 2010, 24FEB06): 2 mg/L
- MIC ([1]; Staphylococcus aureus, MRSA isolate 2011, 24FEB06): 4 mg/L
- MIC50 [1, 5]: 2 mg/L
- MIC90 [1, 5]: 4 mg/L
- MIC [2]: 4 mg/L
Compound: CC(=O)NC[C@H]1CN(c2ccc(N3CCOCC3)c(F)c2)C(=O)O1 [LZD, linezolid]
- CLSI QC Range (MIC) [3]: 1 to 4 mg/L
- CLSI QC Range (MIC) [4]: 1 to 4 mg/L
